Data: patent publication US20180116978A1, “FORMULATIONS OF TOCOTRIENOL QUINONES FOR THE TREATMENT OF OPHTHALMIC DISEASES” (priority 2009, published 2018)
Like-named read-outs stand apart in the source and are kept apart here.

Assays:
[1] = rat, cited from earlier work
[2] = rat, in vivo
Source text: The starting dose can be estimated based on the United States Food and Drug Administration guidelines titled “Estimating the Maximum Safe Starting Dose in Initial Clinical Trials for Therapeutics in Adult Healthy Volunteers” (July 2005) as well as the International Conference on Harmonisation of Technical Requirements for Registration of Pharmaceuticals for Human Use (ICH) guidelines titled “Guidance on Non-clinical Safety Studies for the Conduct of Human Clinical Trials and Marketing Authorization for Pharmaceuticals” (July 2008). Per ICH guidelines, predicted exposures from the starting dose should not exceed 1/50th the NOAEL (No-Adverse-Observed-Effect-Level) in the more sensitive species on a mg/m^2 basis. Following a single oral dose of alpha-tocotrienol quinone, the NOAEL was established to be 500 mg/kg for the female rat, i.e. 3,000 mg/m^2. This dosage would be equivalent to 81 mg/kg in an adult human. 1/50th of 81 mg/kg is 1.6 mg/kg, i.e. 110 mg for a 70 kg adult, or 16 mg for a 10 kg child. This dose can be administered once, twice, or three times daily.

[3] = Animal study of alpha-tocotrienol quinone administration, pharmacokinetics in fasted dogs; format: in vivo; conditions: 10 mg/kg
[4] = rat, in vivo; remark: listed apart in the source

Compound: Cc1c(C)c2c(c(C)c1O)CC[C@@](C)(CCC[C@H](C)CCC[C@H](C)CCCC(C)C)O2 [alpha-tocopherol]
- concentration in ocular tissues ([1]; in vivo): no significant increase

Compound: alpha-tocotrienol
- concentration in ocular tissues ([1]; topical ophthalmic administration): increased markedly in every tissue

Compound: CC(C)=CCC/C(C)=C/CC/C(C)=C/CCC(C)(O)CCC1=C(C)C(=O)C(C)=C(C)C1=O (stereo not drawn) [Alpha-tocotrienol quinone, Alpha-Tocotrienol quinone]
- NOAEL equivalent dosage in an adult human [2]: 81 mg/kg
- safe when given acutely up to [2]: up to 2000 mg/kg
- Cmax [3]: 442 ng/mL
- Tmax [3]: 2.8 h
- bioavailability [3]: ~16%
- t1/2 [3]: 7.6 h
- increase in AUCs [4]: 1.5:2.8:4.0:6.7
- Cmax ([4]; 10 mg/kg): 931 ng/mL
- Tmax ([4]; 10 mg/kg): 3.5 h
- bioavailability ([4]; 10 mg/kg): ~90%
- t1/2 ([4]; 10 mg/kg): 3.5 h
